Broadly, the EC50 is the concentration that produces a half-maximal response. As a reminder, the CLint scaled is the capacity of the preparation to metabolise the compound, expressed as a volume cleared per time. What is called IC50 is the midpoint of a concentration-inhibition curve. The Ki is a dissociation constant, usually derived from enzyme kinetics or from competition with a known ligand. Read a high Ki as weaker binding.

Like-named read-outs stand apart in the source and are kept apart here.

One data set deals with P. falciparum strain 3D7. Briefly: Proliferation of intraerythrocytic P. falciparum 3D7 (SYBR Green, 72 h). The data set is classed as cell-based, Plasmodium falciparum. To be noted: chloroquine sensitive strain 3D7, 72 h, read-out: Pf 3D7 EC50. On the procedure:
Two P. falciparum strains were used in this study and were provided by the MR4 Unit of the American Type Culture Collection (ATCC, Manassas, VA). Those two strains were the chloroquine sensitive strain 3D7 and the K1 strain that is resistant to chloroquine, pyrimethamine, and sulfadoxine.
Asynchronous parasites were maintained in culture based on the method of Trager. Parasites were grown in presence of fresh group O-positive erythrocytes (Key Biologics, LLC) in Petri dishes at a hematocrit of 4–6% in RPMI based media (RPMI 1640 supplemented with 0.5% AlbuMAX II, 25 mM HEPES, 25 mM NaHCO3 (pH 7.3), 100 μg/mL hypoxanthine, and 5 μg/mL gentamycin). Cultures were incubated at 37°C in a gas mixture of 90% N2, 5% O2, 5% CO2. For EC50 determinations, 20 μL of RPMI 1640 with 5 μg/mL gentamycin were dispensed per well in an assay plate (Corning 384-well microtiter plate, clear bottom, tissue culture treated, catalog no. 8807BC). 40 nL of compound, previously serially diluted in a separate 384-well white polypropylene plate (Corning, catalog no. 8748BC), was dispensed to the assay plate by hydrodynamic pin transfer (FP1S50H, V&P Scientific Pin Head) and then 20 μL of a synchronized culture suspension (1% rings, 4% hematocrit) was added to each well, thus making a final hematocrit and parasitemia of 2% and 1%, respectively. Assay plates were incubated for 72 h, and the parasitemia was determined by a method previously described: Briefly, 10 μL of the assay solution in PBS (10X SYBR Green I, 0.5% v/v triton X-100, 0.5 mg/mL saponin) was added to each well. Assay plates were shaken for 1 min, incubated in the dark for 90 min, and read with an Envision (Perkin Elmer) spectrophotometer at Ex/Em of 485 nm/535 nm. EC50s were calculated with a custom program (RISE, Robust Investigation of Screening Experiments) using a four-parameter logistic equation.

Data set [1] in a line: Liver microsomes stability assay. The data set is classed as in vitro ADME, mouse. To be noted: both sexes, CD-1, pH 7.4; for CLint scaled at 9.8 μM: intrinsic clearance calculated from in vitro t1/2, mouse liver microsomes; for half-life at 9.8 μM: mouse liver microsomes, read-out: Mouse Metabolic Stability t1/2 (converted). Here is the method: The microsomal stability assay was carried out as described. […] Each test compound (2.2 μL of 10 mM DMSO solution) was added directly to 1.79 mL of mouse liver microsomal solution and 90 μL was transferred to wells in 96-well plates (0, 0.25, 0.5, 1, 2, and 4 h time points each in triplicate). The NADPH regenerating agent was prepared by mixing 0.113 mL of NADPH regenerating agent solutions A, 0.023 mL of solution B and 0.315 mL of 0.1 M potassium phosphate buffer (pH 7.4) for each tested compound. To each well of the 96-well plate, 22.5 μL of the NADPH regenerating agent was added to initiate the reaction, and the plate was incubated at 37°C for each time point (0, 0.25, 0.5, 1, 2, and 4 h time points each in triplicate). The reaction was quenched by adding 225 μL of cold acetonitrile containing warfarin (4 μg/mL) as internal control to each well. All of the plates were centrifuged at 3220 g for 20 min and the supernatants (100 μL) were transferred to another 96-well plate for analysis on UPLC—MS (Waters Acquity UPLC linked to Waters Acquity Photodiode Array Detector and Waters Acquity Single Quadrupole Mass Detector) on an Acquity UPLC BEH C18 1.7 μm (2.1x50 mm) column by running 90–5% gradient for water (0.1% formic acid) and acetonitrile (0.1% formic acid) in 2 minutes. The area under the single ion recording (SIR) channel for the test compound divided by the area under the SIR for internal control at 0 time concentration was considered as 100% to calculate remaining concentration at each time point. The terminal phase rate constant (ke) was estimated by linear regression of logarithmic transformed concentration versus time, where ke = slope x(-ln10). The half-life t1/2 was calculated as ln2/ke.

Data set [2] deals with BJ cell line (human foreskin fibroblasts). Briefly: Mammalian cell drug susceptibility assay (Cell Titer Glo, 72 h). The data set is classed as cell-based. Here is the method:
The BJ cell line (human foreskin fibroblasts), which express GLUT1 [26], was purchased from the ATTC and cultured according to recommendations. 1000 exponentially growing cells were plated per well (25 μL) in white polystyrene flat bottom sterile 384-well tissue culture treated plates (Corning), and incubated overnight at 37°C in a humidified 5% CO2 incubator. DMSO inhibitor stock solutions were pin-transferred (V&P Scientific) the following day. Plates were placed back in the incubator for 72 h incubation and equilibrated at room temperature for 20 min before addition of 25 μL Cell Titer Glo (Promega) to each well. Plates were shaken on an orbital shaker for 2 min at 500 rpm. Luminescence was read after 15 min on an Envision plate reader (Perkin Elmer). EC50 values were calculated with a custom program (RISE, Robust Investigation of Screening Experiments) using a four-parameter logistic equation.
For orientation: ATP-based viability assays read luminescence as a measure of living cells.

A further data set has as its target PfHT (Plasmodium falciparum, UniProt Q7KWJ5). Briefly: Uptake of [3H] D-glucose by L. mexicana Δlmxgt1-3 null mutants expressing PfHT. It is filed as cell-based. Also noted: expressed in transfected cells; host or cells: Leishmania mexicana promastigotes, Δlmxgt1-3 hexose transporter null mutant. To be noted: for Ki: linear regression; for Vmax: glucose uptake by PfHT; for mode of inhibition of glucose uptake through PfHT: substrate saturation curves, one-way ANOVA of Vmax and Km; for SIglucose GLUT1/PfHT (Specificity Index, IC50 for GLUT1/IC50 for PfHT): uptake of 100 μM [3H] D-glucose. Here is the method:
Glucose uptake assays employed logarithmic phase L. mexicana promastigotes of the Δlmxgt1-3 hexose transporter null mutant strain expressing either PfHT or GLUT1 from an episomal expression vector [17]. Parasites (1x10^7) were resuspended in 100 μL phosphate buffered saline, pH 7.4. Prior to uptake, parasites were pre-incubated for 5 min with inhibitor, and uptake was initiated by adding 100 μL of 200 μM [^3H] D-glucose diluted to 4.0 μCi/mL. Uptake was terminated, typically after 1 min, by centrifuging the parasites through a layer of dibutyl phthalate, as described. Control uptake assays employing [^3H] hypoxanthine, [^3H] uridine, and [^3H] L-proline were performed similarly. Analysis of kinetic data was performed using Graph Pad Prism 4.0b software (Graph Pad).

Where [3] appears, read: Plasmodium falciparum, 3D7, 72 h.
Setting [4] is: Kic (Ki for binding of inhibitor to free transporter), from plot of Km/Vmax versus [I].
Where [5] appears, read: Kiu (Ki for binding of inhibitor to substrate-bound transporter), from plot of 1/Vmax versus [I].

Sequence of PfHT (Q7KWJ5 whole entry): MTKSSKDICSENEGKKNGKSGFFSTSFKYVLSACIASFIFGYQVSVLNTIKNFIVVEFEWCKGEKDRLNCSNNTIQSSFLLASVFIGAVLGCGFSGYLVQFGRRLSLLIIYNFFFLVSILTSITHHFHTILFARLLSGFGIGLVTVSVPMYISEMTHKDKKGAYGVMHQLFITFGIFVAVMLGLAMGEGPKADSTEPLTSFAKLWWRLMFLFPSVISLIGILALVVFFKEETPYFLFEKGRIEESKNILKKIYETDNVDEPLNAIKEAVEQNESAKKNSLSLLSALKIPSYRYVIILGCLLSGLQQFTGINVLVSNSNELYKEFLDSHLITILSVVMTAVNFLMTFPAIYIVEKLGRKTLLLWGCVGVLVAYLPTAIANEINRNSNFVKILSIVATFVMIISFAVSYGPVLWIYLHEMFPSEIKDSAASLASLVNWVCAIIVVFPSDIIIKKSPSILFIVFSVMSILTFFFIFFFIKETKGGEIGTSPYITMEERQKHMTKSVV

Turning to `CC1CCCCN1S(=O)(=O)c1ccc2nc(Nc3cccc(C#N)c3)ccc2c1` (stereo not shown) [Compound 13], the EC50 in the data set on P. falciparum strain 3D7 (setting [3]) was > 10000 nM. Moreover, the half-maximal effective concentration (EC50) in the data set on P. falciparum strain 3D7 stood at 11000 nM. For the same compound, in data set [1], the CLint scaled at 9.8 μM is 680 mL/min/kg and the half-life at 9.8 μM was 4.8 min. In data set [2], the EC50 was > 25000 nM. Moreover, on PfHT, inhibition was half-maximal at 320 nM (IC50), the “lower affinity for PfHT than Compound 1” value came to 8 fold, the “selective inhibition of PfHT versus GLUT1” value is 94 fold and the “mode of inhibition of glucose uptake through PfHT” value is on record as “non-competitive inhibitors”. On PfHT, the “SIglucose GLUT1/PfHT (Specificity Index, IC50 for GLUT1/IC50 for PfHT)” value was 94. The Ki on PfHT (setting [4]) worked out at 330 nM. The same compound returned an inhibitory constant (Ki) on PfHT (setting [5]) of 260 nM. The Vmax at PfHT ([I] 600 nM) is on record as 245 ± 67 pmol per 10^7 cells per min. Further, the Vmax on PfHT ([I] 1000 nM) is reported as 93 ± 53 pmol per 10^7 cells per min.

Consider `CC1CCCCN1S(=O)(=O)c1ccc2nc(Nc3ccccc3)ccc2c1` (stereo not shown) [Compound 10], for which the concentration giving a half-maximal response (EC50) with P. falciparum strain 3D7 (setting [3]) was > 10000 nM; with P. falciparum strain 3D7 it was 15000 nM; in data set [2], > 25000 nM. The intrinsic clearance (CLint scaled) at 9.8 μM in data set [1] was 438 mL/min/kg. Also, the half-life at 9.8 μM in data set [1] is 7.8 min. The 50% inhibitory concentration (IC50) on PfHT (read-out: IC50 PfHT, inhibition of uptake of 100 μM [3H] D-glucose, 1 min uptake assay) was > 10000 nM.

Regarding `COc1cc(Nc2ccc3cc(S(=O)(=O)N4CCCCC4C)ccc3n2)cc(OC)c1OC` (stereo not shown) [Compound 1], the EC50 with P. falciparum strain 3D7 (setting [3]) is ~1000 nM; in the data set on P. falciparum strain 3D7 it was 1400 nM; in data set [2] it was > 23000 nM. Moreover, in data set [1], the CLint scaled at 9.8 μM is 213 mL/min/kg. Moreover, the half-life at 9.8 μM in data set [1] is 16.2 min. The same compound had an IC50 against PfHT of 39 nM. Moreover, the “selective inhibition of PfHT versus GLUT1” value on PfHT worked out at 82 fold. For the same compound, the Ki at PfHT (setting [4]) is 33 nM; on PfHT (setting [5]) it was 23 nM. Also, the Vmax on PfHT ([I] 50 nM) is given as 280 ± 15 pmol per 10^7 cells per min; on PfHT ([I] 100 nM), 131 ± 4 pmol per 10^7 cells per min. In addition, on PfHT, the “mode of inhibition of glucose uptake through PfHT” value is given as “non-competitive inhibitors”. For the same compound, the “SIglucose GLUT1/PfHT (Specificity Index, IC50 for GLUT1/IC50 for PfHT)” value at PfHT is 82.

With `CC1CCCCN1S(=O)(=O)c1ccc2nc(Nc3ccc(C#N)cc3)ccc2c1` (stereo not shown) [Compound 12], the concentration for a half-maximal effect (EC50) in the data set on P. falciparum strain 3D7 (setting [3]) is > 10000 nM; with P. falciparum strain 3D7, > 16000 nM; in data set [2], > 26000 nM. In addition, the intrinsic metabolic clearance (CLint scaled) at 9.8 μM in data set [1] is 178 mL/min/kg. The half-life at 9.8 μM in data set [1] was 19.2 min. The compound further had an IC50 against PfHT of 2700 nM. Further, on PfHT, the “SIglucose GLUT1/PfHT (Specificity Index, IC50 for GLUT1/IC50 for PfHT)” value was found to be 0.92.

Values taken from article PMC4404333, “Identification of Selective Inhibitors of the Plasmodium falciparum Hexose Transporter PfHT by Screening Focused Libraries of Anti-Malarial Compounds” (PLoS ONE, 2015).
